Reference: US12522587B2, “Cancer treatments targeting cancer stem cells” (Remedy Plan, Inc., priority 2018, dated 2026)

System: Primary CD-1 mouse hepatocytes
Test: Hepatocyte toxicity assay (CellTiter Glo)
Assay type: cell-based
Settings: 10 μM daily for 4 days, FIG. 4
Method: Fresh Primary CD-1 mouse hepatocytes were obtained from XenoTech in 96-well plates the day after perfusion. After 24 hrs of recovery at 37° C. using OptiCulture Hepatocyte Media, medium was replaced containing either DMSO alone (no drug treatment) or 10 μM of compound I-1 daily for 4 days. Cell viability was measured using CellTiter Glo 2.0 Kit from PROMEGA, following manufacturer instructions. Luminescence was measured using a SynergyHTX plate reader with a 1 sec integration.
Normal, healthy mouse hepatocytes were treated with DMSO alone (no drug treatment) or 10 µM of compound I-1 for 4 days. Cell health was measured using CELLTITER GLO reagent, which provided a luminescence readout as a measurement of total ATP concentration.

CCC(=O)N1CCc2cc(-c3ccc(C(=O)NCc4cccnc4)cc3)ccc21 [Compound I-1]
toxicity to healthy hepatocytes: no toxicity
